What was measured:
Test in all cases: relative viability (nuclei count vs DMSO), 5 days (fraction); higher = more cells survive
CX-5461 + Decitabine = compound: Cc1cnc(CNC(=O)c2c(=O)c3ccc(N4CCCN(C)CC4)nc3n3c2sc2ccccc23)cn1 [CX-5461] + Nc1ncn([C@H]2C[C@H](O)[C@@H](CO)O2)c(=O)n1 [Decitabine] (partner 2 µM)
In short: (§1)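 After 5 days of treatment, lung cancer cells in 1536-well plates were fixed and stained in a single step (final 0.05% Triton X-100, 1% formaldehyde, 1 ug/ml Hoechst) and their nuclei counted on 4× images. Treatment had been applied by pin tool the day after seeding as one drug alone or as a fixed anchor-drug dose with five library-drug doses (not always all listed) in √10 steps. Relative viability is the nuclei count of treated wells divided by that of vehicle wells, and values are medians of duplicate plates.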

IMD-0354 + Decitabine = compound: O=C(Nc1cc(C(F)(F)F)cc(C(F)(F)F)c1)c1cc(Cl)ccc1O [IMD-0354] + Nc1ncn([C@H]2C[C@H](O)[C@@H](CO)O2)c(=O)n1 [Decitabine] (partner 2 µM)
In short: as §1

IMD-0354 + Navitoclax = compound: O=C(Nc1cc(C(F)(F)F)cc(C(F)(F)F)c1)c1cc(Cl)ccc1O [IMD-0354] + CC1(C)CCC(c2ccc(Cl)cc2)=C(CN2CCN(c3ccc(C(=O)NS(=O)(=O)c4ccc(N[C@H](CCN5CCOCC5)CSc5ccccc5)c(S(=O)(=O)C(F)(F)F)c4)cc3)CC2)C1 [Navitoclax] (partner 0.5 µM)
In short: as §1

CX-5461 + Foretinib = compound: Cc1cnc(CNC(=O)c2c(=O)c3ccc(N4CCCN(C)CC4)nc3n3c2sc2ccccc23)cn1 [CX-5461] + COc1cc2c(Oc3ccc(NC(=O)C4(C(=O)Nc5ccc(F)cc5)CC4)cc3F)ccnc2cc1OCCCN1CCOCC1 [Foretinib] (partner 0.25 µM)
In short: as §1

Cell Line | relative viability (CX-5461 + Decitabine; first compound 0.01 µM) | relative viability (CX-5461 + Decitabine; first compound 0.03162 µM) | relative viability (CX-5461 + Decitabine; first compound 0.1 µM) | relative viability (CX-5461 + Decitabine; first compound 0.3162 µM) | relative viability (CX-5461 + Decitabine; first compound 1 µM) | relative viability (IMD-0354 + Decitabine; first compound 0.04 µM) | relative viability (IMD-0354 + Decitabine; first compound 0.1265 µM) | relative viability (IMD-0354 + Decitabine; first compound 0.4 µM) | relative viability (IMD-0354 + Decitabine; first compound 1.265 µM) | relative viability (IMD-0354 + Decitabine; first compound 4 µM) | relative viability (IMD-0354 + Navitoclax; first compound 0.04 µM) | relative viability (IMD-0354 + Navitoclax; first compound 0.1265 µM) | relative viability (IMD-0354 + Navitoclax; first compound 0.4 µM) | relative viability (IMD-0354 + Navitoclax; first compound 1.265 µM) | relative viability (IMD-0354 + Navitoclax; first compound 4 µM) | relative viability (CX-5461 + Foretinib; first compound 0.01 µM) | relative viability (CX-5461 + Foretinib; first compound 0.03162 µM) | relative viability (CX-5461 + Foretinib; first compound 0.1 µM) | relative viability (CX-5461 + Foretinib; first compound 0.3162 µM) | relative viability (CX-5461 + Foretinib; first compound 1 µM)
201T | 0.861 | 0.849 | 0.885 | 0.814 | 0.834 | 0.797 | 0.807 | 0.851 | 0.828 | 0.331 | 1.27 | 1.25 | 0.77 | 1 | 0.752 | 1.06 | 1.05 | 1.04 | 1.08 | 0.74
A549 | 0.299 | 0.387 | 0.249 | 0.269 | 0.0566 | 0.269 | 0.229 | 0.249 | 0.296 | 0.1 | 1.37 | 1.19 | 0.54 | 0.0726 | 0.0514 | 1.01 | 0.883 | 0.948 | 0.987 | 0.385
A-427 | 0.593 | 0.603 | 0.52 | 0.269 | 0.481 | 0.709 | 0.593 | 0.522 | 0.15 | 0.175 | 0.989 | 0.983 | 0.654 | 0.546 | 0.115 | 1.12 | 1.2 | 1.13 |  | 1.04
ABC-1 | 0.971 |  | 1.38 | 0.429 | 0.96 | 1.23 | 0.985 | 0.851 |  | 0.36 |  |  |  |  |  | 0.909 | 0.91 | 0.651 |  | 0.585
BEN | 0.757 | 0.706 | 0.711 | 0.652 | 0.545 | 0.739 | 0.741 | 0.567 | 0.391 | 0.347 | 0.0569 | 0.0541 | 0.0659 | 0.0403 | 0.0444 | 0.781 | 0.606 | 0.739 | 0.525 | 0.636
CAL-12T |  |  |  |  |  |  |  |  |  |  | 1.33 | 1.08 | 0.629 | 0.358 | 0.156 | 1.03 | 1.08 | 0.966 | 0.945 | 0.741
COR-L23 | 0.424 | 0.424 | 0.371 | 0.489 | 0.219 | 0.402 | 0.443 | 0.339 | 0.141 | 0.146 | 0.891 | 0.961 | 0.375 | 0.0982 | 0.147 | 0.997 | 1.09 | 0.881 | 0.774 | 0.597
COR-L 105 | 0.668 | 0.612 | 0.609 | 0.512 | 0.436 | 0.674 | 0.685 | 0.576 | 0.619 | 0.318 | 0.731 | 0.684 | 0.644 | 0.374 | 0.269 | 1.13 | 1.05 | 1.11 | 0.813 | 0.549
Calu-6 |  |  |  |  |  |  |  |  |  |  | 0.94 | 0.903 | 0.355 | 0.122 | 0.104 | 0.837 | 0.925 | 0.807 | 0.844 | 0.698
ChaGo-K-1 | 0.554 | 0.485 | 0.547 | 0.543 | 0.431 | 0.509 | 0.508 | 0.435 | 0.511 | 0.198 | 1.43 | 1.48 | 0.672 | 0.296 | 0.327 | 0.927 | 0.981 | 0.917 | 0.597 | 0.883
EBC-1 |  |  |  |  |  |  |  |  |  |  | 0.41 | 0.374 | 0.334 | 0.144 | 0.185 | 0.108 | 0.085 | 0.11 | 0.112 | 0.0969
EKVX | 0.286 | 0.418 | 0.395 |  | 0.39 | 0.294 | 0.316 |  | 0.36 | 0.155 | 0.967 | 1.11 |  | 0.573 | 0.206 | 0.971 | 0.726 | 0.698 | 0.821 | 1.03
EMC-BAC-2 | 0.97 | 0.994 | 0.709 | 0.655 | 0.473 | 0.955 | 0.994 | 0.696 |  | 0.282 | 1.2 | 1.17 | 0.617 | 0.977 | 0.219 | 0.988 | 1.13 | 1.06 | 0.928 | 0.885
EPLC-272H | 0.358 | 0.425 | 0.396 |  | 0.297 | 0.372 | 0.341 | 0.362 | 0.337 | 0.288 | 1.45 | 1 | 0.54 | 1.06 | 0.25 | 0.651 | 0.681 | 0.78 |  | 0.467
H3255 | 0.634 | 0.611 | 0.73 |  | 0.624 | 0.52 | 0.595 | 0.504 | 0.529 | 0.3 | 0.394 | 0.715 | 0.408 | 0.089 | 0.144 | 0.907 | 0.854 | 0.818 | 0.558 | 0.835
HARA | 0.595 | 0.429 | 0.559 | 0.587 | 0.526 | 0.5 | 0.665 | 0.399 | 0.189 | 0.251 | 0.952 | 1.11 | 0.36 | 0.342 | 0.131 | 1.01 | 1.09 | 0.806 |  | 0.89
HCC-15 | 0.684 | 0.654 | 0.605 | 0.69 | 0.354 | 0.68 | 0.614 | 0.292 | 0.108 | 0.161 | 0.659 | 0.652 | 0.362 | 0.297 | 0.166 | 1.11 | 1.02 | 0.978 | 0.895 | 0.591
HCC-44 | 0.946 | 1.02 | 0.887 | 0.939 | 0.837 | 0.971 | 0.939 | 0.813 | 0.625 | 0.449 | 0.953 | 0.951 | 0.446 | 0.203 | 0.215 |  |  |  |  | 

From the supplement of paper PMC10307832
